Test results reported in PubChem BioAssay AID1918994 (Molecular Pharmacology Branch, DTP, NCI, 2023).
Several values for one entry are separate records, joined by “and”; a condition that tells them apart may be missing. Identical values can stand only once.

Test system: 292921-168-R-J2-PDC complex spheroid growth
Experiment: Anticancer human tumor 292921-168-R-J2-PDC patient-derived pancreatic carcinoma cell line growth inhibition [AhR]
Conditions: for viability, T/C: stronger effect = lower value
Procedure, shortened: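 Agents were dosed in half-log steps down from roughly clinical Cmax, or from 10 microM where Cmax was unknown, alone and with AhR antagonists. Read-out: percent test/control growth of tumor spheroids containing HUVEC and MSC stromal cells.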

[1] = curve of first compound, second compound 0.1 µM
[2] = curve of first compound, second compound 0.316 µM
[3] = curve of first compound, second compound 1 µM
[4] = curve of first compound, second compound 3.16 µM
[5] = curve of first compound, second compound 10 µM
[6] = second compound 0.1 µM, first compound 0.0316 µM
[7] = second compound 0.1 µM, first compound 0.1 µM
[8] = second compound 0.1 µM, first compound 0.316 µM
[9] = second compound 0.1 µM, first compound 1 µM
[10] = second compound 0.316 µM, first compound 0.0316 µM
[11] = second compound 0.316 µM, first compound 0.1 µM
[12] = second compound 0.316 µM, first compound 0.316 µM
[13] = second compound 0.316 µM, first compound 1 µM
[14] = second compound 1 µM, first compound 0.0316 µM
[15] = second compound 1 µM, first compound 0.1 µM
[16] = second compound 1 µM, first compound 0.316 µM
[17] = second compound 1 µM, first compound 1 µM
[18] = second compound 3.16 µM, first compound 0.0316 µM
[19] = second compound 3.16 µM, first compound 0.1 µM
[20] = second compound 3.16 µM, first compound 0.316 µM
[21] = second compound 3.16 µM, first compound 1 µM
[22] = second compound 10 µM, first compound 0.0316 µM
[23] = second compound 10 µM, first compound 0.1 µM
[24] = second compound 10 µM, first compound 0.316 µM
[25] = second compound 10 µM, first compound 1 µM
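Note: spheroids exposed to compounds for seven days after three days of growth.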

SMILES	IC50 [1]	IC50 [2]	IC50 [3]	IC50 [4]	IC50 [5]	viability, T/C [6]	viability, T/C [7]	viability, T/C [8]	viability, T/C [9]	viability, T/C [10]	viability, T/C [11]	viability, T/C [12]	viability, T/C [13]	viability, T/C [14]	viability, T/C [15]	viability, T/C [16]	viability, T/C [17]	viability, T/C [18]	viability, T/C [19]	viability, T/C [20]	other results
NS(=O)(=O)OCC1CC(n2ccc3c(NC4CCc5ccccc54)ncnc32)CC1O (configuration not stated) + Cc1cncc(-c2nc(NCCc3c[nH]c4ccccc34)c3ncn(C(C)C)c3n2)c1	227 nM	224 nM	231 nM	229 nM	221 nM	136%	111%	25.1%	6.77%	133%	108%	25.1%	7.33%	117%	104%	30%	6.44%	111%	93.7%	33.1%	viability, T/C (second compound 0.1 µM, first compound 3.16 µM): 5.38%; viability, T/C (second compound 0.1 µM, first compound 10 µM): 5.4%; viability, T/C (second compound 0.316 µM, first compound 3.16 µM): 5.81%; viability, T/C (second compound 0.316 µM, first compound 10 µM): 5.63%; viability, T/C (second compound 1 µM, first compound 3.16 µM): 6.99%; viability, T/C (second compound 1 µM, first compound 10 µM): 7.06%; viability, T/C [21]: 8.82%; viability, T/C (second compound 3.16 µM, first compound 3.16 µM): 7.53%; viability, T/C (second compound 3.16 µM, first compound 10 µM): 6.05%; viability, T/C [22]: 69.9%; viability, T/C [23]: 76.7%; viability, T/C [24]: 39.5%; viability, T/C [25]: 13%; viability, T/C (second compound 10 µM, first compound 3.16 µM): 9.88%; viability, T/C (second compound 10 µM, first compound 10 µM): 7.28%
CC1COCCN1c1cc(-c2ccnn2C)c2ccnc(-c3ccn[nH]3)c2n1 (configuration not stated) + Cc1ccccc1N=Nc1ccc(NC(=O)c2ccnn2C)c(C)c1	38.5 nM	43.9 nM	33.1 nM	20 nM	13.2 nM	54.5%	26.6%	18.5%	15.5%	58.9%	28.8%	18%	16.2%	51.8%	25%	19.3%	15.7%	37.3%	23.2%	16.7%	viability, T/C (second compound 0.1 µM, first compound 0.00316 µM): 95.7%; viability, T/C (second compound 0.1 µM, first compound 0.01 µM): 86.6%; viability, T/C (second compound 0.316 µM, first compound 0.00316 µM): 90.8%; viability, T/C (second compound 0.316 µM, first compound 0.01 µM): 81.6%; viability, T/C (second compound 1 µM, first compound 0.00316 µM): 83.4%; viability, T/C (second compound 1 µM, first compound 0.01 µM): 74.3%; viability, T/C (second compound 3.16 µM, first compound 0.00316 µM): 79.2%; viability, T/C (second compound 3.16 µM, first compound 0.01 µM): 68.1%; viability, T/C [21]: 13.8%; viability, T/C (second compound 10 µM, first compound 0.00316 µM): 57.8%; viability, T/C (second compound 10 µM, first compound 0.01 µM): 57%; viability, T/C [22]: 29.8%; viability, T/C [23]: 25.1%; viability, T/C [24]: 19.2%; viability, T/C [25]: 15.8%
CC1COCCN1c1cc(C2(S(C)(=N)=O)CC2)nc(-c2ccnc3[nH]ccc23)n1 (configuration not stated)																					viability, T/C (compound 0.0316 µM): 98% and 110% (2×); viability, T/C (compound 0.1 µM): 93.9% and 96.9% and 110%; viability, T/C (compound 0.316 µM): 89.8% and 90.3% and 106%; viability, T/C (compound 1 µM): 89.2% and 77.6% and 79.8%; viability, T/C (compound 3.16 µM): 58% and 44.7% and 50.7%; viability, T/C (compound 10 µM): 27.7% (2×) and 21.3%; IC50 (curve of compound): 4300 nM and 2860 nM and 3080 nM
